Assays:
Details in all cases: exposure time: 72 h
E31 [1] = patient-derived glioblastoma stem cells of proneural subtype; assay: surviving fraction (nuclei count normalised to DMSO); higher = more cells surviving (less toxic)
E34 [2] = patient-derived glioblastoma stem cells of proneural subtype; assay: as above
E28 [3] = patient-derived glioblastoma stem cells of classical subtype; assay: as above
FT3469 [4] = normal neural stem cell line; assay: as above
E57 [5] = patient-derived glioblastoma stem cells of mesenchymal subtype; assay: as above
E21 [6] = patient-derived glioblastoma stem cells of mesenchymal subtype; assay: as above
E13 [7] = patient-derived glioblastoma stem cells of classical subtype; assay: as above
E31 [8] = assay: phenotypic distance (Euclidean, principal components) from DMSO controls (arbitrary units); higher = stronger morphological change
E34 [9] = assay: as above
E28 [10] = assay: as above
FT3469 [11] = assay: as above
E57 [12] = assay: as above
E21 [13] = assay: as above
E13 [14] = assay: as above
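For phenotypic distance (Euclidean, principal components) from DMSO controls in this document: cell Painting imaging in 384-well plates, CellProfiler features reduced to at least 20 principal components, Euclidean distance versus same-plate DMSO vehicle wells (0.1% v/v), median over six images per well.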
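For surviving fraction (nuclei count normalised to DMSO) in this document: nuclei counted by high-content imaging of Hoechst-stained cells in laminin-coated 384-well plates, relative to 0.1% DMSO vehicle wells, with staurosporine as cell-death control.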

O=C1c2c(O)ccc(O)c2C(=O)c2c(NCCNCCO)ccc(NCCNCCO)c21 [Mitoxantrone]
Details | phenotypic distance | surviving fraction
E13 [7], 4.1 nM | – | 0.526
E13 [7], 12.3 nM | – | 0.451
E13 [7], 37 nM | – | 0.422
E13 [7], 111.1 nM | – | 0.338
E13 [7], 333.3 nM | – | 0.279
E13 [7], 1000 nM | – | 0.23
E13 [7], 3000 nM | – | 0.219
E13 [14], 4.1 nM | 4.74 | –
E13 [14], 12.3 nM | 5.62 | –
E13 [14], 37 nM | 6.07 | –
E13 [14], 111.1 nM | 6.02 | –
E13 [14], 333.3 nM | 6.18 | –
E13 [14], 1000 nM | 6.49 | –
E13 [14], 3000 nM | 6.08 | –
E21 [6], 4.1 nM | – | 0.689
E21 [6], 12.3 nM | – | 0.608
E21 [6], 37 nM | – | 0.448
E21 [6], 111.1 nM | – | 0.229
E21 [6], 333.3 nM | – | 0.207
E21 [6], 1000 nM | – | 0.209
E21 [6], 3000 nM | – | 0.189
E21 [13], 4.1 nM | 2.94 | –
E21 [13], 12.3 nM | 4.27 | –
E21 [13], 37 nM | 6.11 | –
E21 [13], 111.1 nM | 6.48 | –
E21 [13], 333.3 nM | 6.79 | –
E21 [13], 1000 nM | 6.1 | –
E21 [13], 3000 nM | 5.74 | –
E28 [3], 4.1 nM | – | 0.476
E28 [3], 12.3 nM | – | 0.359
E28 [3], 37 nM | – | 0.358
E28 [3], 111.1 nM | – | 0.262
E28 [3], 333.3 nM | – | 0.313
E28 [3], 1000 nM | – | 0.286
E28 [3], 3000 nM | – | 0.264
E28 [10], 4.1 nM | 3.3 | –
E28 [10], 12.3 nM | 3.24 | –
E28 [10], 37 nM | 3.23 | –
E28 [10], 111.1 nM | 3.7 | –
E28 [10], 333.3 nM | 3.72 | –
E28 [10], 1000 nM | 3.17 | –
E28 [10], 3000 nM | 2.86 | –
E31 [1], 4.1 nM | – | 0.243
E31 [1], 12.3 nM | – | 0.219
E31 [1], 37 nM | – | 0.311
E31 [1], 111.1 nM | – | 0.216
E31 [1], 333.3 nM | – | 0.218
E31 [1], 1000 nM | – | 0.127
E31 [1], 3000 nM | – | 0.142
E31 [8], 4.1 nM | 2.71 | –
E31 [8], 12.3 nM | 3.14 | –
E31 [8], 37 nM | 2.43 | –
E31 [8], 111.1 nM | 2.42 | –
E31 [8], 333.3 nM | 2.72 | –
E31 [8], 1000 nM | 4.39 | –
E31 [8], 3000 nM | 4.07 | –
E34 [2], 4.1 nM | – | 0.578
E34 [2], 12.3 nM | – | 0.494
E34 [2], 37 nM | – | 0.578
E34 [2], 111.1 nM | – | 0.615
E34 [2], 333.3 nM | – | 0.547
E34 [2], 1000 nM | – | 0.564
E34 [2], 3000 nM | – | 0.56
E34 [9], 4.1 nM | 4.38 | –
E34 [9], 12.3 nM | 4.62 | –
E34 [9], 37 nM | 4.33 | –
E34 [9], 111.1 nM | 2.84 | –
E34 [9], 333.3 nM | 2.54 | –
E34 [9], 1000 nM | 1.99 | –
E34 [9], 3000 nM | 2.83 | –
E57 [5], 4.1 nM | – | 0.245
E57 [5], 12.3 nM | – | 0.2
E57 [5], 37 nM | – | 0.174
E57 [5], 111.1 nM | – | 0.165
E57 [5], 333.3 nM | – | 0.161
E57 [5], 1000 nM | – | 0.159
E57 [5], 3000 nM | – | 0.17
E57 [12], 4.1 nM | 8.68 | –
E57 [12], 12.3 nM | 9.84 | –
E57 [12], 37 nM | 8.24 | –
E57 [12], 111.1 nM | 6.95 | –
E57 [12], 333.3 nM | 7.05 | –
E57 [12], 1000 nM | 7.26 | –
E57 [12], 3000 nM | 6.66 | –
FT3469 [4], 4.1 nM | – | 0.595
FT3469 [4], 12.3 nM | – | 0.645
FT3469 [4], 37 nM | – | 0.657
FT3469 [4], 111.1 nM | – | 0.604
FT3469 [4], 333.3 nM | – | 0.639
FT3469 [4], 1000 nM | – | 0.604
FT3469 [4], 3000 nM | – | 0.362
FT3469 [11], 4.1 nM | 1.61 | –
FT3469 [11], 12.3 nM | 1.65 | –
FT3469 [11], 37 nM | 1.7 | –
FT3469 [11], 111.1 nM | 1.36 | –
FT3469 [11], 333.3 nM | 1.3 | –
FT3469 [11], 1000 nM | 2.01 | –
FT3469 [11], 3000 nM | 3.46 | –

CC(=O)O[C@H]1C[C@H](O[C@H]2[C@@H](O)C[C@H](O[C@H]3[C@@H](O)C[C@H](O[C@H]4CC[C@@]5(C)[C@H](CC[C@@H]6[C@@H]5C[C@@H](O)[C@]5(C)[C@@H](C7=CC(=O)OC7)CC[C@]65O)C4)O[C@@H]3C)O[C@@H]2C)O[C@H](C)[C@H]1O[C@@H]1O[C@H](CO)[C@@H](O)[C@H](O)[C@H]1O [Lanatoside C]
Details | phenotypic distance | surviving fraction
E13 [7], 4.1 nM | – | 0.646
E13 [7], 12.3 nM | – | 0.373
E13 [7], 37 nM | – | 0.344
E13 [7], 111.1 nM | – | 0.349
E13 [7], 333.3 nM | – | 0.268
E13 [7], 1000 nM | – | 0.273
E13 [7], 3000 nM | – | 0.245
E13 [14], 4.1 nM | 3.23 | –
E13 [14], 12.3 nM | 4.4 | –
E13 [14], 37 nM | 4.8 | –
E13 [14], 111.1 nM | 5.94 | –
E13 [14], 333.3 nM | 6.29 | –
E13 [14], 1000 nM | 6.53 | –
E13 [14], 3000 nM | 6.35 | –
E21 [6], 4.1 nM | – | 0.829
E21 [6], 12.3 nM | – | 0.52
E21 [6], 37 nM | – | 0.513
E21 [6], 111.1 nM | – | 0.347
E21 [6], 333.3 nM | – | 0.287
E21 [6], 1000 nM | – | 0.214
E21 [6], 3000 nM | – | 0.241
E21 [13], 4.1 nM | 2.87 | –
E21 [13], 12.3 nM | 3.93 | –
E21 [13], 37 nM | 4.41 | –
E21 [13], 111.1 nM | 6.06 | –
E21 [13], 333.3 nM | 7.08 | –
E21 [13], 1000 nM | 6.66 | –
E21 [13], 3000 nM | 6.83 | –
E28 [3], 4.1 nM | – | 0.864
E28 [3], 12.3 nM | – | 0.807
E28 [3], 37 nM | – | 0.625
E28 [3], 111.1 nM | – | 0.57
E28 [3], 333.3 nM | – | 0.505
E28 [3], 1000 nM | – | 0.394
E28 [3], 3000 nM | – | 0.449
E28 [10], 4.1 nM | 1.18 | –
E28 [10], 12.3 nM | 1.82 | –
E28 [10], 37 nM | 2.35 | –
E28 [10], 111.1 nM | 3.35 | –
E28 [10], 333.3 nM | 3.21 | –
E28 [10], 1000 nM | 3.17 | –
E28 [10], 3000 nM | 3.73 | –
E31 [1], 4.1 nM | – | 1.26
E31 [1], 12.3 nM | – | 0.646
E31 [1], 37 nM | – | 0.564
E31 [1], 111.1 nM | – | 0.398
E31 [1], 333.3 nM | – | 0.413
E31 [1], 1000 nM | – | 0.35
E31 [1], 3000 nM | – | 0.326
E31 [8], 4.1 nM | 2.01 | –
E31 [8], 12.3 nM | 3.33 | –
E31 [8], 37 nM | 4.72 | –
E31 [8], 111.1 nM | 5.61 | –
E31 [8], 333.3 nM | 4.79 | –
E31 [8], 1000 nM | 4.62 | –
E31 [8], 3000 nM | 5.53 | –
E34 [2], 4.1 nM | – | 0.887
E34 [2], 12.3 nM | – | 0.769
E34 [2], 37 nM | – | 0.597
E34 [2], 111.1 nM | – | 0.56
E34 [2], 333.3 nM | – | 0.543
E34 [2], 1000 nM | – | 0.397
E34 [2], 3000 nM | – | 0.276
E34 [9], 4.1 nM | 1.29 | –
E34 [9], 12.3 nM | 2.98 | –
E34 [9], 37 nM | 3.49 | –
E34 [9], 111.1 nM | 4.28 | –
E34 [9], 333.3 nM | 3.87 | –
E34 [9], 1000 nM | 3.82 | –
E34 [9], 3000 nM | 5.11 | –
E57 [5], 4.1 nM | – | 1.03
E57 [5], 12.3 nM | – | 0.615
E57 [5], 37 nM | – | 0.371
E57 [5], 111.1 nM | – | 0.238
E57 [5], 333.3 nM | – | 0.217
E57 [5], 1000 nM | – | 0.177
E57 [5], 3000 nM | – | 0.152
E57 [12], 4.1 nM | 2.85 | –
E57 [12], 12.3 nM | 4.99 | –
E57 [12], 37 nM | 6.18 | –
E57 [12], 111.1 nM | 7.2 | –
E57 [12], 333.3 nM | 6.8 | –
E57 [12], 1000 nM | 6.87 | –
E57 [12], 3000 nM | 7.11 | –
FT3469 [4], 4.1 nM | – | 0.642
FT3469 [4], 12.3 nM | – | 0.545
FT3469 [4], 37 nM | – | 0.622
FT3469 [4], 111.1 nM | – | 0.554
FT3469 [4], 333.3 nM | – | 0.66
FT3469 [4], 1000 nM | – | 0.627
FT3469 [4], 3000 nM | – | 0.592
FT3469 [11], 4.1 nM | 3.36 | –
FT3469 [11], 12.3 nM | 3.52 | –
FT3469 [11], 37 nM | 3.89 | –
FT3469 [11], 111.1 nM | 3.72 | –
FT3469 [11], 333.3 nM | 3.47 | –
FT3469 [11], 1000 nM | 3.7 | –
FT3469 [11], 3000 nM | 3.74 | –

Source: the supplement of paper PMC13207355
